From ChEMBL document CHEMBL4616616, “Identification of a C3'-nitrile nucleoside analogue inhibitor of pancreatic cancer cell line growth” (Bioorg Med Chem Lett, 2020)
Calls of active or inactive are those of the source. The rule behind the calls is not given here.

How the values were obtained:
Capan-2 [1] = experiment: Antiproliferative activity against human Capan2 cells harboring TP53 and G12V KRAS mutations assessed as inhibition of cell growth at 25 uM incubated for 96 hrs by cell-titer-Glo 2.0 assay
BXPC-3 [2] = experiment: Antiproliferative activity against human BxPC3 cells harboring wild type KRAS and TP53 mutation assessed as inhibition of cell growth at 25 uM incubated for 96 hrs by cell-titer-Glo 2.0 assay; format: functional, cell-based
Capan-2 [3] = experiment: Antiproliferative activity against human Capan2 cells harboring TP53 and G12V KRAS mutations assessed as inhibition of cell growth incubated for 96 hrs by cell-titer-Glo assay; details: Capan-2, 96 h
BXPC-3 [4] = experiment: Antiproliferative activity against human BxPC3 cells harboring wild type KRAS and TP53 mutation assessed as cell killing incubated for 96 hrs by cell-titer-Glo 2.0 assay relative to control; format: functional
BXPC-3 [5] = experiment: Antiproliferative activity against human BxPC3 cells harboring wild type KRAS and TP53 mutation assessed as inhibition of cell growth incubated for 96 hrs by cell-titer-Glo 2.0 assay; format: functional, cell-based; details: BXPC-3, 96 h
Capan-2 [6] = experiment: Antiproliferative activity against human Capan2 cells harboring TP53 and G12V KRAS mutations assessed as cell killing incubated for 96 hrs by cell-titer-Glo 2.0 assay relative to control
Capan-2 [7] = experiment: Antiproliferative activity against human Capan2 cells harboring TP53 and G12V KRAS mutations assessed as inhibition of cell growth incubated for 96 hrs by cell-titer-Glo 2.0 assay relative to control
BXPC-3 [8] = experiment: Antiproliferative activity against human BxPC3 cells harboring wild type KRAS and TP53 mutation assessed as maximal inhibition of cell growth at 2.5 uM incubated for 96 hrs by cell-titer-Glo assay; format: functional, cell-based

For `C[C@]1(CC#N)[C@H](F)[C@H](n2cnc3c(N)nc(Cl)nc32)O[C@@H]1CO`, which inhibition (Capan-2 [1]) is on record?
Its inhibition is “inactive”.

And the inhibition (BXPC-3 [2])?
The inhibition was “inactive”.

`CC(C)OC(=O)[C@H](C)N[P@](=O)(OC[C@H]1O[C@@H](n2cnc3c(NCc4ccccc4)nc(Cl)nc32)[C@@H](F)[C@]1(C)CC#N)Oc1ccccc1` was tested. Which EC50 (Capan-2 [3]) did it give?
The EC50 was 7 µM.

And the Activity (BXPC-3 [4])?
Its Activity is 60%.

What about the EC50 (BXPC-3 [5]) of the same compound?
Its EC50 is 12 µM.

And the Activity (Capan-2 [6])?
The Activity was 80%.

With `C[C@]1(CC#N)[C@H](F)[C@H](n2cnc3c(NCc4ccccc4)nc(Cl)nc32)O[C@@H]1CO` as the compound, how does the Activity (BXPC-3 [4]) read?
The Activity was 20%.

How did the Imax (Capan-2 [7]) turn out when `Nc1ccn([C@@H]2O[C@H](CO)[C@@H](O)C2(F)F)c(=O)n1` [GEMCITABINE] was run?
The Imax was 40%.

What about the inhibition (BXPC-3 [8]) of the same compound?
The inhibition was “Active”.
